In ChEMBL document CHEMBL5034004, “Discovery of M3 Antagonist-PDE4 Inhibitor Dual Pharmacology Molecules for the Treatment of Chronic Obstructive Pulmonary Disease” (J Med Chem, 2021):

Key:
[1] = target: Muscarinic acetylcholine receptor M3 (Homo sapiens, UniProt P20309); experiment: Displacement of [3H]-N-methyl Scopolamine Chloride from human M3 receptor membranes incubated for 2 hrs by scintillation counting analysis; assay type: cell membranes, Cell membrane
[2] = Antagonist activity at muscarinic M3 receptor in guinea pig trachea assessed as inhibition of carbachol-induced contraction; assay type: tissue-based, Cavia porcellus
[3] = Antiinflammatory activity in human PBMCs assessed as inhibition of LPS-induced TNF-alpha release measured after 18 hrs by ELISA; assay type: functional, tissue-based, PBMC; settings: for IC50: Homo sapiens, PBMC, 18 h; for pIC50: pbmc
[4] = target: 3',5'-cyclic-AMP phosphodiesterase 4B (Homo sapiens, UniProt Q07343); experiment: Inhibition of human recombinant PDE4B2 assessed as […] in cAMP level incubated for 2 hrs by LANCE Ultra cAMP TR-FRET assay
[5] = target: 3',5'-cyclic phosphodiesterase; experiment: Inhibition of PDE4 in human U-937 cells assessed as […] in cAMP level by LANCE cAMP Assay; assay type: cell-based
[6] = Kinetic solubility of compound in PBS at pH 7.4 […] incubated for 2 hrs by LC-UV and LC-MS analysis; assay type: physicochemical; settings: read-out: Kinetic_solubility
[7] = target: Muscarinic acetylcholine receptor M3 (Rattus norvegicus, UniProt P08483); experiment: Antagonist activity at muscarinic M3 receptor in rat trachea assessed as inhibition of carbachol-induced contraction; assay type: functional, tissue-based
Muscarinic acetylcholine receptor M3 (Rattus norvegicus, UniProt P08483), sequence (P08483 whole entry): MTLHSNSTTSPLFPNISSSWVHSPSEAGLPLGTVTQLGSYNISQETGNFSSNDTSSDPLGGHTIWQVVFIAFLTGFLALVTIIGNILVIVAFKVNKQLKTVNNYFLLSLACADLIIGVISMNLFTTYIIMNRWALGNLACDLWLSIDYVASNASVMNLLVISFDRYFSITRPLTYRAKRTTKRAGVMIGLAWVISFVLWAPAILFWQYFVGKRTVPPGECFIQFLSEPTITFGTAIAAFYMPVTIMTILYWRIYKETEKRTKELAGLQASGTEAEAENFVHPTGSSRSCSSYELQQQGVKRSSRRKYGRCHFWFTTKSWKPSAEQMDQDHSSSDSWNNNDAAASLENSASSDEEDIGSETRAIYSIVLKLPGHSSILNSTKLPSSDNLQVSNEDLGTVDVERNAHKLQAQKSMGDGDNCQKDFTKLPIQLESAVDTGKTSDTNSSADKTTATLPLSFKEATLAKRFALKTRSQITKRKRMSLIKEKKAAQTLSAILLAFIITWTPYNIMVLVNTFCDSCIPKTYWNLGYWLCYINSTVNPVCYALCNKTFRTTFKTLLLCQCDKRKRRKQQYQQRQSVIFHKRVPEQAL

Muscarinic acetylcholine receptor M3 (Homo sapiens, UniProt P20309), sequence (P20309 whole entry): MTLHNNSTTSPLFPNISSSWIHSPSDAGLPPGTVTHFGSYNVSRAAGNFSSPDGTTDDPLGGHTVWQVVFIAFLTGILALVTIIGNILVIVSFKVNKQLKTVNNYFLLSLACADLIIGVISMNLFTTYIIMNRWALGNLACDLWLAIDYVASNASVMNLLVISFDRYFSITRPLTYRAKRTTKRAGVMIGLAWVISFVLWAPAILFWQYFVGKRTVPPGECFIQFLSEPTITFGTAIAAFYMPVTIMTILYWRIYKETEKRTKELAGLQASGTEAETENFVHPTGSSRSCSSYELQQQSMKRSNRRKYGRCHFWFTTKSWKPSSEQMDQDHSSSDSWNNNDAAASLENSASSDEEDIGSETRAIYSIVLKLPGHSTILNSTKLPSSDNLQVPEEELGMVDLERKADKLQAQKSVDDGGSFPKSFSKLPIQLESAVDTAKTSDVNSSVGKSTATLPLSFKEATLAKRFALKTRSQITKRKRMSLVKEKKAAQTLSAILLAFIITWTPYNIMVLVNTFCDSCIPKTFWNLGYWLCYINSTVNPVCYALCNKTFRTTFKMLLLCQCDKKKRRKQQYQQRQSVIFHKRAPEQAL
3',5'-cyclic-AMP phosphodiesterase 4B, sequence (Q07343 whole entry): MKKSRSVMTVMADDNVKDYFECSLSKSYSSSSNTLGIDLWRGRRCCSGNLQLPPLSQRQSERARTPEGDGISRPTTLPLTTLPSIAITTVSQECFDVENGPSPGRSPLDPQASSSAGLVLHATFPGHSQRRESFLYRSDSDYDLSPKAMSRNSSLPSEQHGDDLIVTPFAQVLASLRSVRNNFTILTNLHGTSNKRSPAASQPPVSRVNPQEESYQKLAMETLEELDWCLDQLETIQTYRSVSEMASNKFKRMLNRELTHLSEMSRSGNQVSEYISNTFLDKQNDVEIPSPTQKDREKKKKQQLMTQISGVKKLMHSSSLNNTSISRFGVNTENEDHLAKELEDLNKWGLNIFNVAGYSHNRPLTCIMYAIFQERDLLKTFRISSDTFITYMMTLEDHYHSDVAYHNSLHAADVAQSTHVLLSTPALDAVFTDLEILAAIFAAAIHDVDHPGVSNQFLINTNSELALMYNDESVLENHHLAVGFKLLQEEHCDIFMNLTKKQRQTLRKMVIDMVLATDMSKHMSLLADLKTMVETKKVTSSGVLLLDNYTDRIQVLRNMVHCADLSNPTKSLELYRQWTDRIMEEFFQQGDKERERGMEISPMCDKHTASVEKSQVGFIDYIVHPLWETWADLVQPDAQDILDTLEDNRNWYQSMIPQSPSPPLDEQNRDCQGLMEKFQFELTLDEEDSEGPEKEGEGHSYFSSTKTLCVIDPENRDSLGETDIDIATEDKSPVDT

Row | Structure (SMILES) | Ki [1] [nM] | pIC50 [2] | IC50 [3] [nM] | IC50 [4] [nM] | further results
1 | COc1ccc([C@H](Cc2c(Cl)c[n+]([O-])cc2Cl)OC(=O)c2ccc(CN(C(=O)O[C@H]3CN4CCC3CC4)c3cccnc3)s2)cc1OC | 7.94 | – | – | – | –
2 | COc1ccc([C@H](Cc2c(Cl)c[n+]([O-])cc2Cl)OC(=O)c2ccc(CN(C(=O)O[C@H]3CN4CCC3CC4)c3ccccc3)cc2F)cc1OC | 0.158 | 8.6 | 0.126 | 2.51 | –
3 | COc1ccc([C@H](Cc2c(Cl)c[n+]([O-])cc2Cl)OC(=O)c2ccc(F)c(CN(C(=O)O[C@H]3CN4CCC3CC4)c3ccccc3)c2)cc1OC | 0.2 | 9 | 2 | 7.94 | –
4 | COc1ccc([C@H](Cc2c(Cl)c[n+]([O-])cc2Cl)OC(=O)Cc2ccc(CN(C(=O)O[C@H]3CN4CCC3CC4)c3ccccc3)cc2)cc1OC | 0.316 | – | – | 10 | –
5 | COc1ccc([C@H](Cc2c(Cl)c[n+]([O-])cc2Cl)OC(=O)c2ccc(CN(C(=O)O[C@H]3CN4CCC3CC4)c3ccccc3)cc2)cc1OC | 0.158 | 8.7 | 2.51 | 2 | –
6 | COc1ccc([C@H](Cc2c(Cl)c[n+]([O-])cc2Cl)OC(=O)c2ccc(CN(C(=O)O[C@H]3CN4CCC3CC4)c3cccc(C(F)F)c3)s2)cc1OC | 3.16 | 8.8 | 0.2 | 0.316 | –
7 | O=C(O[C@@H](Cc1c(Cl)c[n+]([O-])cc1Cl)c1ccc(OC(F)F)c(OCC2CC2)c1)c1cccc(NC(C(=O)O[C@H]2CN3CCC2CC3)c2ccccc2)c1 (some centres not stated) | 0.794 | < 6 | – | – | pIC50 [5]: 9
8 | O=C(O[C@@H](Cc1c(Cl)c[n+]([O-])cc1Cl)c1ccc(OC(F)F)c(OCC2CC2)c1)c1cccc(CN(C(=O)O[C@H]2CN3CCC2CC3)c2ccccc2)c1 | 1.26 | 6.5 | – | – | pIC50 [5]: 9.9
9 | O=C(O[C@@H](Cc1c(Cl)c[n+]([O-])cc1Cl)c1ccc(OC(F)F)c(OCC2CC2)c1)c1cccc(S(=O)(=O)NC(C(=O)O[C@H]2CN3CCC2CC3)c2ccccc2)c1 (some centres not stated) | 1.26 | 7.3 | – | – | pIC50 [5]: 10
10 | COc1ccc([C@H](Cc2c(Cl)c[n+]([O-])cc2Cl)OC(=O)c2ccc(CN(C(=O)O[C@H]3CN4CCC3CC4)c3cccc(F)c3)s2)cc1OC | 0.2 | 8.1 | 0.631 | 1 | –
11 | CCOc1cc([C@H](Cc2c(Cl)c[n+]([O-])cc2Cl)OC(=O)c2ccc(CN(C(=O)O[C@H]3CN4CCC3CC4)c3ccccc3F)s2)ccc1OC(F)F | 0.316 | 8.3 | – | – | solubility kinetic at 2 h [6]: < 5 µM
12 | CC(C)Oc1cc([C@H](Cc2c(Cl)c[n+]([O-])cc2Cl)OC(=O)c2ccc(CN(C(=O)O[C@H]3CN4CCC3CC4)c3ccccc3F)s2)ccc1OC(F)F | 0.316 | 7.5 | – | – | solubility kinetic at 2 h [6]: < 5 µM
13 | COc1ccc([C@H](Cc2c(Cl)c[n+]([O-])cc2Cl)OC(=O)c2ccc(CN(C(=O)O[C@H]3CN4CCC3CC4)c3nccs3)s2)cc1OC | 0.794 | 8.4 | 0.501 | 0.631 | –
14 | COc1ccc([C@H](Cc2c(Cl)c[n+]([O-])cc2Cl)OC(=O)c2ccc(CN(C(=O)O[C@H]3CN4CCC3CC4)c3cccc(O)c3)s2)cc1OC | 0.316 | 9 | 0.398 | 0.794 | –
15 | O=C(O[C@@H](Cc1c(Cl)c[n+]([O-])cc1Cl)c1ccc(OC(F)F)c(OCC2CC2)c1)c1cccc(CNC(C(=O)O[C@H]2CN3CCC2CC3)c2ccccc2)c1 (some centres not stated) | 0.631 | 7.6 | – | – | pIC50 [5]: 9.5
16 | COc1ccc([C@H](Cc2c(Cl)c[n+]([O-])cc2Cl)OC(=O)c2cccc(NC(C(=O)O[C@H]3CN4CCC3CC4)c3ccccc3)c2)cc1OC (some centres not stated) | 0.398 | 7.7 | – | – | pIC50 [5]: 9.8
17 | COc1ccc([C@H](Cc2c(Cl)c[n+]([O-])cc2Cl)OC(=O)c2cccc(CN(C(=O)O[C@H]3CN4CCC3CC4)c3ccccc3)c2)cc1OC | 0.316 | 9.2 | 5.01 | 6.31 | pIC50 [5]: 9
18 | COc1cc([C@H](Cc2c(Cl)c[n+]([O-])cc2Cl)OC(=O)c2ccc(CN(C(=O)O[C@H]3CN4CCC3CC4)c3ccccc3F)s2)ccc1OC(F)F | 0.251 | 8.2 | – | – | solubility kinetic at 2 h [6]: < 5 µM
19 | O=C(O[C@@H](Cc1c(Cl)c[n+]([O-])cc1Cl)c1ccc(OC(F)F)c(OCC2CC2)c1)c1ccc(CN(C(=O)O[C@H]2CN3CCC2CC3)c2ccccc2F)s1 | 0.2 | 8.2 | – | – | solubility kinetic at 2 h [6]: < 5 µM
20 | COc1ccc([C@H](Cc2c(Cl)c[n+]([O-])cc2Cl)OC(=O)c2cccc(S(=O)(=O)NC(C(=O)O[C@H]3CN4CCC3CC4)c3ccccc3)c2)cc1OC (some centres not stated) | 0.631 | 8.2 | – | – | pIC50 [5]: 9.6

Row | Structure (SMILES) | Ki [1] [nM] | pIC50 [2] | IC50 [3] [nM] | IC50 [4] [nM] | further results
21 | COc1ccc([C@H](Cc2c(Cl)c[n+]([O-])cc2Cl)OC(=O)c2cccc(CNC(C(=O)O[C@H]3CN4CCC3CC4)c3ccccc3)c2)cc1OC (stereo in doubt; 86a) | 0.398 | 8.2 | – | – | pIC50 [5]: 9.5
22 | COc1ccc([C@H](Cc2c(Cl)c[n+]([O-])cc2Cl)OC(=O)c2cccc(CNC(C(=O)O[C@H]3CN4CCC3CC4)c3ccccc3)c2)cc1OC (stereo in doubt; 89) | 0.158 | 9 | 1.26 | 3.98 | –
23 | COc1ccc([C@H](Cc2c(Cl)c[n+]([O-])cc2Cl)OC(=O)c2cccc(CNC(C(=O)O[C@H]3CN4CCC3CC4)c3ccccc3)c2)cc1OC (stereo in doubt; 90) | 0.2 | 9.1 | – | 7.94 | pIC50 [3]: 8.6
24 | COc1ccc([C@H](Cc2c(Cl)c[n+]([O-])cc2Cl)OC(=O)c2ccc(CNC(C(=O)O[C@H]3CN4CCC3CC4)c3ccccc3F)s2)cc1OC (stereo in doubt; 91b) | 0.1 | 8.6 | 1 | 0.631 | –
25 | COc1ccc([C@H](Cc2c(Cl)c[n+]([O-])cc2Cl)OC(=O)c2ccc(CN(C)C(C(=O)O[C@H]3CN4CCC3CC4)c3ccccc3)s2)cc1OC (stereo in doubt; 91c) | 0.631 | – | 3.16 | 2 | –
26 | COc1ccc([C@H](Cc2c(Cl)c[n+]([O-])cc2Cl)OC(=O)c2ccc(CNC(C(=O)OC3C[C@H]4CC[C@H](C3)N4C)c3ccccc3)s2)cc1OC (stereo in doubt; 91d) | 0.501 | – | 2.51 | 1 | IC50 [7]: 10 nM
27 | COc1ccc([C@H](Cc2c(Cl)c[n+]([O-])cc2Cl)OC(=O)c2ccc(CNC(C(=O)OC3CCN(C)CC3)c3ccccc3)s2)cc1OC (stereo in doubt; 91e) | 10 | – | 1.58 | 1 | IC50 [7]: 20 nM
28 | COc1ccc([C@H](Cc2c(Cl)c[n+]([O-])cc2Cl)OC(=O)c2ccc(CNC(C(=O)O[C@@H]3CCN(C)C3)c3ccccc3)s2)cc1OC (stereo in doubt; 91f) | 7.94 | – | 3.98 | 3.16 | IC50 [7]: 1 nM
29 | COc1ccc([C@H](Cc2c(Cl)c[n+]([O-])cc2Cl)OC(=O)c2ccc(CNC(C(=O)OC[C@H]3CN4CCC3CC4)c3ccccc3)s2)cc1OC (stereo in doubt; 91g) | – | – | 3.16 | – | IC50 [7]: 20 nM
30 | COc1ccc([C@H](Cc2c(Cl)c[n+]([O-])cc2Cl)OC(=O)c2ccc(CNC(C(=O)OCC3CCN(C)CC3)c3ccccc3)s2)cc1OC (stereo in doubt; 91h) | – | – | – | – | pIC50 [3]: 8.4
31 | COc1ccc([C@H](Cc2c(Cl)c[n+]([O-])cc2Cl)OC(=O)c2ccc(CNC(C(=O)OC[C@H]3CCN3C)c3ccccc3)s2)cc1OC (stereo in doubt; 91i) | – | – | – | – | IC50 [7]: 20 nM; pIC50 [3]: 8.1
32 | COc1ccc([C@H](Cc2c(Cl)c[n+]([O-])cc2Cl)OC(=O)c2ccc(CNC(C(=O)OCCN(C)C)c3ccccc3)s2)cc1OC (stereo in doubt; 91j) | 12.6 | – | 3.16 | 1 | IC50 [7]: 79.4 nM
33 | COc1ccc([C@H](Cc2c(Cl)c[n+]([O-])cc2Cl)OC(=O)c2ccc(CNC(C(=O)O[C@H]3CN4CCC3CC4)c3ccccc3F)s2)cc1OC (stereo in doubt; 92b) | 0.158 | 8.5 | – | – | pIC50 [3]: 8.9; pIC50 [4]: 9.2
34 | COc1ccc([C@H](Cc2c(Cl)c[n+]([O-])cc2Cl)OC(=O)c2ccc(CN(C)C(C(=O)O[C@H]3CN4CCC3CC4)c3ccccc3)s2)cc1OC (stereo in doubt; 92c) | – | – | – | 3.16 | pKi [1]: 9.2; pIC50 [3]: 8.7
35 | COc1ccc([C@H](Cc2c(Cl)c[n+]([O-])cc2Cl)OC(=O)c2ccc(CNC(C(=O)OC3C[C@H]4CC[C@H](C3)N4C)c3ccccc3)s2)cc1OC (stereo in doubt; 92d) | 10 | – | – | – | pIC50 [4]: 9
36 | COc1ccc([C@H](Cc2c(Cl)c[n+]([O-])cc2Cl)OC(=O)c2ccc(CNC(C(=O)OC[C@H]3CN4CCC3CC4)c3ccccc3)s2)cc1OC (stereo in doubt; 92g) | – | – | – | – | IC50 [7]: 3.16 nM; pIC50 [3]: 8.4
37 | COc1ccc([C@H](Cc2c(Cl)c[n+]([O-])cc2Cl)OC(=O)c2ccc(CNC(C(=O)OCC3CCN(C)CC3)c3ccccc3)s2)cc1OC (stereo in doubt; 92h) | – | – | – | – | IC50 [7]: 5.01 nM; pIC50 [3]: 8.8
38 | COc1ccc([C@H](Cc2c(Cl)c[n+]([O-])cc2Cl)OC(=O)c2ccc(CNC(C(=O)OC[C@H]3CCN3C)c3ccccc3)s2)cc1OC (stereo in doubt; 92i) | – | – | – | – | IC50 [7]: 5.01 nM
39 | COc1ccc([C@H](Cc2c(Cl)c[n+]([O-])cc2Cl)OC(=O)c2ccc(CNC(C(=O)OCCN(C)C)c3ccccc3)s2)cc1OC (stereo in doubt; 92j) | 0.398 | – | – | 0.631 | IC50 [7]: 12.6 nM
